Test results: paper PMC4559881 (Molecular Neurodegeneration, 2015)
Values joined by “and” are separate entries in the source; they are usually repeats but may differ in a detail not shown here. Identical values can stand only once. Like-named read-outs stand apart in the source and are kept apart here.

Columns and labels:
APP51/16 transgenic mice = test: Chronic 6-week treatment of APP51/16 mice: APP metabolites, Aβ deposition and neuroinflammation; type: in vivo, mouse; details: relative to vehicle-treated mice
Aβ40 [1] = test: Pre-plaque APP51/16 mice: brain Aβ40 after single or 4-day oral dosing; type: in vivo, mouse
Experimental: This strain of transgenic mice was selected since it resembles the situation in sporadic human AD, where no APP mutation is present. […] Next, we dosed the compound p.o. once daily for 4 days at 2 doses to pre-plaque APP51/16 mice (age: 8 months) in order to achieve steady state exposure, and measured the Aβ40 reduction 24 h after the last dose. […] In order to achieve a >50 % reduction of brain Aβ over a 24 h period in mice we selected this dose for a chronic study.
(§1) Frozen rodent forebrains were homogenized in 9 volumes of ice-cold Tris-buffered saline (pH 7.4) containing Complete protease inhibitor cocktail (Roche Diagnostics, Penzberg, Germany) using a Sonifier 450 (Branson) and stored in aliquots at -80 °C. Triton X-100 soluble Aβ was extracted by mixing 50 μl 2 % Triton X-100 with 50 μl homogenate, incubating for 15 min on ice with vortexing, followed by ultracentrifugation at 100000xg for 15 min. The clear supernatant was diluted to a final forebrain dilution of 1:100 and used for analysis. For the extraction of insoluble amyloid peptides, 50 μl forebrain homogenate was mixed with 117 μl of 100 % formic acid and stored on ice for 15 min with vortexing. Samples were neutralized with 950 μl 1 M Tris base, containing Complete protease inhibitor cocktail (Roche, Basle, Switzerland) and stored overnight at room temperature. The supernatant after 15 min centrifugation at 14000 rpm was used for analysis.
Aβ38, 40 and 42 were determined using the electro-chemiluminescence immuno assay kits from Meso Scale Discovery (Rockville, MD, USA) in either singlet or triplex format. Samples and standards were prepared according to the manufactures protocols. […] Soluble APPα and sAPPβ from APP51/16 mice were determined from the 100000xg supernatant and analyzed with Meso Scale Discovery commercial kits. C-terminal fragments C83 and C99 were determined from Western blots. […] After transfer to Immobilon P membranes (Bio-Rad Bedford MA USA), bands were probed with APP C8 antibody (recognizing the C-terminus of APP) and detected with goat anti-mouse IgG Fab fragment AlexaFluor680 (Invitrogen). […]

SweAPP CHO cells = test: Aβ40 release from Swedish human APP751 CHO cells; details: Cricetulus griseus, 24 h, read-out: IC50 Aβ40 release
[2] = Octanol/water distribution coefficient; type: physicochemical; details: derived from apparent permeability across an artificial liquid membrane
Experimental: The octanol/water distribution coefficient was derived from the apparent permeability across an artificial liquid membrane. The PAMPA assay was done as described. MDCK cells overexpressing human p-glycoprotein (MDR1-MDCK cells, obtained from Prof. A. Berns, Netherlands Cancer Institute) were grown on HTS Multiwell plates, 1 μm pore size (Becton Dickinson). After formation of a tight monolayer, NB-360 was applied to either the upper or the lower chamber. After one hour, liquid was removed from the upper and lower chambers and analyzed by HPLC-MS. Apical-to-basolateral and basolateral-to-apical transport rates were calculated.

Aβ40 [3] = test: Dog PK/PD study: Aβ40 in CSF and plasma; type: in vivo
Experimental: The mean (± SD) level of Aβ40 in the CSF prior to dosing was 5991 ± 1199 pg/ml (2 sampling times -24 h and -1 h, n = 7), and the predose plasma Aβ40 level was 261 ± 13 pg/ml (mean ± SD, n = 4, -1 h). […] All dogs responded strongly to the treatment, CSF Aβ40 was reduced by approximately 80 % from 12 to 48 h post dose and slowly returned to baseline (Fig. 3b). […] Furthermore, the available data were used for a calculation of the Aβ40 clearance rate from dog CSF.
(§2) Aβ38, 40 and 42 were determined using the electro-chemiluminescence immuno assay kits from Meso Scale Discovery (Rockville, MD, USA) in either singlet or triplex format. Samples and standards were prepared according to the manufactures protocols. The kit based on the antibody 4G8 was used for rat forebrain and CSF samples, and kits based on 6E10 were used for dog CSF or plasma and APP51/16 brain and CSF samples. Soluble APPα and sAPPβ from APP51/16 mice were determined from the 100000xg supernatant and analyzed with Meso Scale Discovery commercial kits. C-terminal fragments C83 and C99 were determined from Western blots. Forebrain homogenates dephosphorylated with lambda protein phosphatase as described and run on a 10 % Tris-bicine gel with 8 M urea. After transfer to Immobilon P membranes (Bio-Rad Bedford MA USA), bands were probed with APP C8 antibody (recognizing the C-terminus of APP) and detected with goat anti-mouse IgG Fab fragment AlexaFluor680 (Invitrogen). The same gel was used to visualize Aβ1-38, 1-40, and 1-42 using the N-terminal antibody beta1 and goat anti rabbit IgG IRdye 800CW (Odyssey). Full-length human APP was detected using an in house immunoassay based on the MSD ECL system as described.

[4] = Dog PK/PD study: NB-360 exposure in blood and CSF; type: in vivo; details: male, Beagle, blood, po, 0.5 mg/kg p.o.
Experimental: Blood and CSF were sampled before treatment (at -24 and at -1 h) and at various time points after oral dosing, up to 168 h.
(§3) Brain samples were homogenized with 2 mM KH2PO4 buffer (approx. 1/2, w/v). […] The LLOQ ranged between 0.4 and 2 ng/mL in blood and 1.2 ng/g and 6 ng/g in brain.
Rat studies used male Charles River Sprague-Dawley rats of approx. 300 g body weight. Female transgenic APP51/16 mice (C57BL/6 background strain) were bred in-house. APP51/16 mice express human wild-type APP751 under the control of a Thy-1 expression cassette in brain neurons, and are characterized by mostly cortical, but few vascular amyloid-β deposits. […] Dosing was per os in a dose volume of 10 ml/kg for mice and 5 ml/kg for rats. […] Rodents were deeply anesthetized for CSF sampling from the cisterna magna, accessed through the exposed atlanto-occipital membrane. CSF was harvested into protein lo-bind Eppendorf tubes and frozen on dry ice. Animals were decapitated while anesthetized and blood and brain samples collected. Brains were briefly rinsed in PBS, quickly wet-dissected and samples frozen on a metal plate precooled on dry ice. All samples were stored at -80 ° C until analysis. The dog study was carried out at Charles River Laboratories, Canada. Male dogs were used with n = 4 per group. A cannula with an access port was implanted under anesthesia, to allow serial CSF sampling from the lateral ventricle. […]

[5] = Pharmacokinetics after i.v. and oral application, rat
Experimental: Pharmacokinetic studies used male Sprague Dawley rats, C57BL6 mice and Beagle dogs, obtained from Charles River (France, rodents) and Marshall (Italy, dogs). […] Blood was collected i.v., by sublingual bleeding or at sacrifice whereas a serial blood sampling allowed obtaining individual PK profiles in these species. Blood samples were taken between 5 min (intravenous) and 15 min (oral) up to 24 h (mice), 48 h (rat) and 408 h (dog).
The absorption and disposition parameters were estimated by a non-compartmental analysis of the mean blood concentration (n = 3 mice) or individual concentration (rats, dogs) versus time profile after oral and intravenous administration.

Aβ40 [6] = test: Rat PK/PD study: Aβ40 in forebrain and CSF after oral dosing; type: in vivo; details: for ED50: po, at 4 h, read-out: ED50 for inhibition of forebrain Aβ40
Experimental: Maximum activity was between 4 and 8 h, and Aβ40 concentrations returned to baseline after 24 h. Significant (>50 %) Aβ40 lowering was observed even at the lowest dose of 3 μmol/kg, and the effect saturated at higher doses.
as §1, §2

[7] = Chronic treatment of mice: observations (mortality, hair colour, retina); type: in vivo; details: APP51/16 mice, 100 μmol/kg p.o. once daily
[8] = Chronic 6-week treatment of APP51/16 mice: NB-360 blood exposure; details: female, APP51/16 (C57BL/6 background), mouse, po, 100 μmol/kg
Experimental: as §3
Rat studies used male Charles River Sprague-Dawley rats of approx. 300 g body weight. Female transgenic APP51/16 mice (C57BL/6 background strain) were bred in-house. APP51/16 mice express human wild-type APP751 under the control of a Thy-1 expression cassette in brain neurons, and are characterized by mostly cortical, but few vascular amyloid-β deposits. […] Dosing was per os in a dose volume of 10 ml/kg for mice and 5 ml/kg for rats. […] Rodents were deeply anesthetized for CSF sampling from the cisterna magna, accessed through the exposed atlanto-occipital membrane. CSF was harvested into protein lo-bind Eppendorf tubes and frozen on dry ice. Animals were decapitated while anesthetized and blood and brain samples collected. Brains were briefly rinsed in PBS, quickly wet-dissected and samples frozen on a metal plate precooled on dry ice. All samples were stored at -80 ° C until analysis. The dog study was carried out at Charles River Laboratories, Canada. Male dogs were used with n = 4 per group. A cannula with an access port was implanted under anesthesia, to allow serial CSF sampling from the lateral ventricle. Dogs were allowed to recover from the surgery for 2 weeks before the start of the experiment.

[9] = male, Sprague Dawley, blood, iv, 2 umol/kg

SMILES: Cc1cc(C#N)cnc1C(=O)Nc1ccc(F)c([C@]2(C)CO[C@@](C)(C(F)(F)F)C(N)=N2)c1 [NB-360]
- number of GFAP positive cell clusters in the cortex (APP51/16 transgenic mice): substantially lower
- lowering of TX-100 soluble brain Aβ40 (Aβ40 [1]; pre-plaque APP51/16 mice (3-5 months), 30 μmol/kg single oral dose, 4 h): 79.6%
- reduction of forebrain Aβ (Aβ40 [1]; pre-plaque APP51/16 mice (8 months), 30 μmol/kg/d p.o. 4 days, 24 h after last dose): 15.1%
- Aβ40 reduction in forebrain (Aβ40 [1]; pre-plaque APP51/16 mice (8 months), 100 μmol/kg/d p.o. 4 days, 24 h after last dose): 52.1%
- IC50 (SweAPP CHO cells): 33 nM
- logP [2]: 3.7
- time to reach the maximum effect on CSF Aβ (Aβ40 [3]; 1.1 μmol/kg (0.5 mg/kg)): around 12 h
- time at which CSF Aβ40 reached baseline (Aβ40 [3]; 0.5 mg/kg p.o.): about 120 h
- Plasma Aβ40 change (Aβ40 [3]; 0.5 mg/kg p.o., after 1 h): -42%
- Plasma Aβ40 change (Aβ40 [3]; 0.5 mg/kg p.o., after 12 h): -70%
- CSF Aβ40 reduction (Aβ40 [3]; 0.5 mg/kg p.o., from 12 to 48 h post dose): approximately 80%
- IC50 (Aβ40 [3]; Canis lupus familiaris, read-out: in vivo IC50 of NB-360 in blood for the reduction of Aβ40 in CSF, PK/PD modelling): 59 ± 13 nM
- Aβ reduction, approximate area under the effect curve over a 24 h period (Aβ40 [3]; from the values at 12 and 36 h): 70-75%
- concentration at 168 h [4]: 23 ± 31 nM
- Vol. of Distribution ([5]; 2 μmol/kg i.v.): 10.2 L/kg
- clearance [5, 9]: 52 mL/min/kg
- half-life [5, 9]: 2.7 h
- bioavailability ([5]; male, Sprague Dawley, blood, po, 6 umol/kg): 92%
- Aβ40 inhibition (Aβ40 [6]; 30 μmol/kg p.o., 4 h): 90.9% and ~ 90%
- Max effect (dose-response in brain) (Aβ40 [6]; based on 4 h data, Fig. 2d): 91%
- Aβ40 lowering (Aβ40 [6]; lowest dose 3 μmol/kg p.o.): > 50%
- ED50 (Aβ40 [6]; converted dose): 0.7 mg/kg
- ED50 (Aβ40 [6]): 1.6 ± 0.25 µmol/kg
- first appearance of grey hair patches [7]: 2-3 weeks
- mortality during treatment ([7]; 6 weeks): Two out of 17 mice in the treatment group died
- concentration at 4 h [8]: 3200 nM
- concentration at 24 h [8]: 130 nM
